What was measured:
Experiment in all cases: Test E pre-/postemergence plant response
Type in all cases: in vivo
[1] = tested on: green foxtail (Setaria viridis); conditions: scale 0 to 100
Summary of the method: (§1)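 Plant response was judged by eye relative to controls, 0 meaning no effect and 100 complete control, after 14 to 21 days under greenhouse conditions. Compound was formulated in a non-phytotoxic solvent mixture with surfactant.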

[2] = tested on: common groundsel (Senecio vulgaris); conditions: Postemergence, scale 0 to 100
Summary of the method: as §1

[3] = tested on: common mallow (Malva sylvestris); conditions: scale 0 to 100
Summary of the method: as §1

[4] = tested on: guineagrass (Panicum maximum); conditions: scale 0 to 100
Summary of the method: as §1

[5] = tested on: southern (S.) sandbur (Cenchrus echinatus); conditions: scale 0 to 100
Summary of the method: as §1

[6] = tested on: pitted morningglory (Ipomoea lacunosa); conditions: scale 0 to 100
Summary of the method: as §1

[7] = tested on: goosegrass (Eleusine indica); conditions: scale 0 to 100
Summary of the method: as §1

[8] = tested on: annual bluegrass (Poa annua); conditions: scale 0 to 100
Summary of the method: as §1

[9] = tested on: purple nutsedge (Cyperus rotundus); conditions: scale 0 to 100
Summary of the method: as §1

[10] = tested on: barnyardgrass (Echinochloa crus-galli); conditions: scale 0 to 100
Summary of the method: as §1

[11] = tested on: large crabgrass (Digitaria sanguinalis); conditions: scale 0 to 100
Summary of the method: as §1

## Cc1cc(-c2ccc(Cl)cc2)nn1-c1c(OS(=O)(=O)c2ccccc2)cnn(C)c1=O [Compound 35]
[1]; 8 g ai/ha, Preemergence
  Plant response rating, Foxtail, Green: 15
[1]; 16 g ai/ha, Preemergence
  Plant response rating, Foxtail, Green: 35
[1]; 31 g ai/ha, Preemergence
  Plant response rating, Foxtail, Green: 90
[1]; 62 g ai/ha, Preemergence
  Plant response rating, Foxtail, Green: 98
[1]; Postemergence, 8 g ai/ha
  Plant response rating, Foxtail, Green: 40
[1]; Postemergence, 16 g ai/ha
  Plant response rating, Foxtail, Green: 60
[1]; Postemergence, 31 g ai/ha
  Plant response rating, Foxtail, Green: 65
[1]; Postemergence, 62 g ai/ha
  Plant response rating, Foxtail, Green: 75
[2]; 8 g ai/ha
  Plant response rating, Groundsel: 0
[2]; 16 g ai/ha
  Plant response rating, Groundsel: 0
[3]; 62 g ai/ha, Preemergence
  Plant response rating, Mallow: 0
[3]; Postemergence, 8 g ai/ha
  Plant response rating, Mallow: 0
[3]; Postemergence, 16 g ai/ha
  Plant response rating, Mallow: 0
[3]; Postemergence, 31 g ai/ha
  Plant response rating, Mallow: 0
[3]; Postemergence, 62 g ai/ha
  Plant response rating, Mallow: 0
[4]; 16 g ai/ha, Preemergence
  Plant response rating, Guineagrass: 100
[4]; 31 g ai/ha, Preemergence
  Plant response rating, Guineagrass: 100
[4]; 62 g ai/ha, Preemergence
  Plant response rating, Guineagrass: 100
[4]; Postemergence, 8 g ai/ha
  Plant response rating, Guineagrass: 75
[4]; Postemergence, 16 g ai/ha
  Plant response rating, Guineagrass: 75
[4]; Postemergence, 31 g ai/ha
  Plant response rating, Guineagrass: 80
[4]; Postemergence, 62 g ai/ha
  Plant response rating, Guineagrass: 95
[5]; 16 g ai/ha, Preemergence
  Plant response rating, Sandbur, S.: 75
[5]; 31 g ai/ha, Preemergence
  Plant response rating, Sandbur, S.: 90
[5]; 62 g ai/ha, Preemergence
  Plant response rating, Sandbur, S.: 100
[5]; Postemergence, 8 g ai/ha
  Plant response rating, Sandbur, S.: 40
[5]; Postemergence, 16 g ai/ha
  Plant response rating, Sandbur, S.: 75
[5]; Postemergence, 31 g ai/ha
  Plant response rating, Sandbur, S.: 75
[5]; Postemergence, 62 g ai/ha
  Plant response rating, Sandbur, S.: 75
[6]; 16 g ai/ha, Preemergence
  Plant response rating, Morningglory: 0
[6]; 31 g ai/ha, Preemergence
  Plant response rating, Morningglory: 0
[6]; 62 g ai/ha, Preemergence
  Plant response rating, Morningglory: 0
[6]; Postemergence, 8 g ai/ha
  Plant response rating, Morningglory: 0
[6]; Postemergence, 16 g ai/ha
  Plant response rating, Morningglory: 0
[6]; Postemergence, 31 g ai/ha
  Plant response rating, Morningglory: 0
[6]; Postemergence, 62 g ai/ha
  Plant response rating, Morningglory: 0
[7]; 8 g ai/ha, Preemergence
  Plant response rating, Goosegrass: 20
[7]; 16 g ai/ha, Preemergence
  Plant response rating, Goosegrass: 75
[7]; 31 g ai/ha, Preemergence
  Plant response rating, Goosegrass: 100
[7]; 62 g ai/ha, Preemergence
  Plant response rating, Goosegrass: 100
[7]; Postemergence, 8 g ai/ha
  Plant response rating, Goosegrass: 30
[7]; Postemergence, 16 g ai/ha
  Plant response rating, Goosegrass: 30
[7]; Postemergence, 31 g ai/ha
  Plant response rating, Goosegrass: 40
[7]; Postemergence, 62 g ai/ha
  Plant response rating, Goosegrass: 75
[8]; 8 g ai/ha, Preemergence
  Plant response rating, Bluegrass: 0
[8]; 16 g ai/ha, Preemergence
  Plant response rating, Bluegrass: 0
[8]; 31 g ai/ha, Preemergence
  Plant response rating, Bluegrass: 0
[8]; 62 g ai/ha, Preemergence
  Plant response rating, Bluegrass: 0
[8]; Postemergence, 8 g ai/ha
  Plant response rating, Bluegrass: 0
[8]; Postemergence, 16 g ai/ha
  Plant response rating, Bluegrass: 0
[8]; Postemergence, 31 g ai/ha
  Plant response rating, Bluegrass: 0
[8]; Postemergence, 62 g ai/ha
  Plant response rating, Bluegrass: 0
[9]; 16 g ai/ha, Preemergence
  Plant response rating, Nutsedge, Purple: 0
[9]; 62 g ai/ha, Preemergence
  Plant response rating, Nutsedge, Purple: 0
[9]; Postemergence, 8 g ai/ha
  Plant response rating, Nutsedge, Purple: 0
[9]; Postemergence, 16 g ai/ha
  Plant response rating, Nutsedge, Purple: 0
[9]; Postemergence, 31 g ai/ha
  Plant response rating, Nutsedge, Purple: 0
[9]; Postemergence, 62 g ai/ha
  Plant response rating, Nutsedge, Purple: 0
[10]; 8 g ai/ha, Preemergence
  Plant response rating, Barnyardgrass: 40
[10]; 16 g ai/ha, Preemergence
  Plant response rating, Barnyardgrass: 80
[10]; 31 g ai/ha, Preemergence
  Plant response rating, Barnyardgrass: 95
[10]; 62 g ai/ha, Preemergence
  Plant response rating, Barnyardgrass: 100
[10]; Postemergence, 8 g ai/ha
  Plant response rating, Barnyardgrass: 60
[10]; Postemergence, 16 g ai/ha
  Plant response rating, Barnyardgrass: 75
[10]; Postemergence, 31 g ai/ha
  Plant response rating, Barnyardgrass: 100
[10]; Postemergence, 62 g ai/ha
  Plant response rating, Barnyardgrass: 100
[11]; 8 g ai/ha, Preemergence
  Plant response rating, Crabgrass, Large: 20
[11]; 16 g ai/ha, Preemergence
  Plant response rating, Crabgrass, Large: 20
[11]; 31 g ai/ha, Preemergence
  Plant response rating, Crabgrass, Large: 95
[11]; 62 g ai/ha, Preemergence
  Plant response rating, Crabgrass, Large: 100
[11]; Postemergence, 8 g ai/ha
  Plant response rating, Crabgrass, Large: 50
[11]; Postemergence, 16 g ai/ha
  Plant response rating, Crabgrass, Large: 60
[11]; Postemergence, 31 g ai/ha
  Plant response rating, Crabgrass, Large: 75
[11]; Postemergence, 62 g ai/ha
  Plant response rating, Crabgrass, Large: 80

## Cc1cc(-c2ccc(Cl)cc2)nn1-c1c(OC(=O)c2cccc(Cl)c2)cnn(C)c1=O [Compound 32]
[1]; Postemergence, 8 g ai/ha
  Plant response rating, Foxtail, Green: 40
[1]; Postemergence, 16 g ai/ha
  Plant response rating, Foxtail, Green: 60
[1]; Postemergence, 31 g ai/ha
  Plant response rating, Foxtail, Green: 85
[1]; Postemergence, 62 g ai/ha
  Plant response rating, Foxtail, Green: 90
[2]; 8 g ai/ha
  Plant response rating, Groundsel: 0
[2]; 16 g ai/ha
  Plant response rating, Groundsel: 0
[2]; 31 g ai/ha
  Plant response rating, Groundsel: 0
[2]; 62 g ai/ha
  Plant response rating, Groundsel: 0
[3]; Postemergence, 8 g ai/ha
  Plant response rating, Mallow: 0
[3]; Postemergence, 16 g ai/ha
  Plant response rating, Mallow: 0
[3]; Postemergence, 31 g ai/ha
  Plant response rating, Mallow: 0
[3]; Postemergence, 62 g ai/ha
  Plant response rating, Mallow: 0
[4]; Postemergence, 8 g ai/ha
  Plant response rating, Guineagrass: 90
[4]; Postemergence, 16 g ai/ha
  Plant response rating, Guineagrass: 98
[4]; Postemergence, 31 g ai/ha
  Plant response rating, Guineagrass: 98
[4]; Postemergence, 62 g ai/ha
  Plant response rating, Guineagrass: 100
[5]; Postemergence, 8 g ai/ha
  Plant response rating, Sandbur, S.: 60
[5]; Postemergence, 16 g ai/ha
  Plant response rating, Sandbur, S.: 75
[5]; Postemergence, 31 g ai/ha
  Plant response rating, Sandbur, S.: 80
[5]; Postemergence, 62 g ai/ha
  Plant response rating, Sandbur, S.: 80
[6]; Postemergence, 8 g ai/ha
  Plant response rating, Morningglory: 0
[6]; Postemergence, 16 g ai/ha
  Plant response rating, Morningglory: 35
[6]; Postemergence, 31 g ai/ha
  Plant response rating, Morningglory: 35
[6]; Postemergence, 62 g ai/ha
  Plant response rating, Morningglory: 50
[7]; Postemergence, 8 g ai/ha
  Plant response rating, Goosegrass: 35
[7]; Postemergence, 16 g ai/ha
  Plant response rating, Goosegrass: 35
[7]; Postemergence, 31 g ai/ha
  Plant response rating, Goosegrass: 60
[7]; Postemergence, 62 g ai/ha
  Plant response rating, Goosegrass: 80
[8]; Postemergence, 8 g ai/ha
  Plant response rating, Bluegrass: 0
[8]; Postemergence, 16 g ai/ha
  Plant response rating, Bluegrass: 0
[8]; Postemergence, 31 g ai/ha
  Plant response rating, Bluegrass: 0
[8]; Postemergence, 62 g ai/ha
  Plant response rating, Bluegrass: 0
[9]; Postemergence, 8 g ai/ha
  Plant response rating, Nutsedge, Purple: 0
[9]; Postemergence, 16 g ai/ha
  Plant response rating, Nutsedge, Purple: 0
[9]; Postemergence, 31 g ai/ha
  Plant response rating, Nutsedge, Purple: 0
[9]; Postemergence, 62 g ai/ha
  Plant response rating, Nutsedge, Purple: 0
[10]; Postemergence, 8 g ai/ha
  Plant response rating, Barnyardgrass: 98
[10]; Postemergence, 16 g ai/ha
  Plant response rating, Barnyardgrass: 98
[10]; Postemergence, 31 g ai/ha
  Plant response rating, Barnyardgrass: 100
[10]; Postemergence, 62 g ai/ha
  Plant response rating, Barnyardgrass: 100
[11]; Postemergence, 8 g ai/ha
  Plant response rating, Crabgrass, Large: 35
[11]; Postemergence, 16 g ai/ha
  Plant response rating, Crabgrass, Large: 75
[11]; Postemergence, 31 g ai/ha
  Plant response rating, Crabgrass, Large: 75
[11]; Postemergence, 62 g ai/ha
  Plant response rating, Crabgrass, Large: 80
